The nature of this data set: Oral bioavailability studies in dogs. It is filed as in vivo. Particulars: both sexes, beagle, dog, plasma; unformulated solid in a capsule dosage form, 5 mg/kg oral dose in dogs. How it is done: These capsules were administered to fasted dogs with 10 ml of water.
These capsules were administered to non-fasted dogs with ten milliliter of water.
These capsules were administered to fed dogs with ten milliliter of water.
Dogs (beagle dogs, mixed sexes, weighing 7-14 kg) were fasted overnight prior to dosing, but were permitted water ad libitum. Each dog received a 100 μg/kg subcutaneous dose of histamine approximately 30 minutes prior to dosing. Each dog received a single solid dosage form corresponding to a 5 mg/kg dose of the drug. The dose was followed by approximately 10 milliliters of water. Blood samples were obtained from each animal prior to dosing and 0.25, 0.5, 1.0, 1.5, 2, 3, 4, 6, 8, 10 and 12 hours after drug administration. […] Concentrations of parent drug were determined by reverse phase HPLC with low wavelength UV detection following liquid-liquid extraction of the plasma samples. The parent drug area under the curve was calculated by the trapezoidal method over the time course of the study. The absolute bioavailability of each test composition was calculated by comparing the area under the curve after oral dosing to that obtained from a single intravenous dose. Each capsule or capsule composition was evaluated in a group containing at least six dogs; the values reported are averages for each group of dogs.

As a reminder, the bioavailability is the share of a dose that reaches the circulation, judged against a reference dose that is usually intravenous. A lower bioavailability goes with little systemic uptake. Regarding `CC(C)c1nc(CN(C)C(=O)N[C@H](C(=O)N[C@@H](Cc2ccccc2)C[C@H](O)[C@H](Cc2ccccc2)NC(=O)OCc2cncs2)C(C)C)cs1` [compound III, (2S,3S,5S)-5-(N-(N-((N-Methyl-N-((2-isopropyl-4-thiazolyl)methyl)-amino)carbonyl)valinyl)amino)-2-(N-((5-thiazolyl)methoxycarbonyl)amino)-1,6-diphenyl-3-hydroxyhexane], the bioavailability is less than 2%.

The record behind these values is patent US6521651B1, “Pharmaceutical composition” (Abbott Laboratories, priority 1996, dated 2003).
